The values that follow come from patent publication US9686983B2, “Tobacco axillary bud growth inhibitor and method for inhibiting tobacco axillary bud growth” (SDS BIOTECH K. K., priority 2013, dated 2017).

The test system of series [1] is tobacco leaves (first to fourth leaves from the top). Briefly: Harmful effect of the inhibitor on tobacco leaves (growth inhibition, gangrene, change in color, deformation). In kind it is in vivo, Nicotiana tabacum, Tsukuba 1 (flue-cured cultivar). On the procedure:
(§1) Tobacco seedlings of Tsukuba 1 (flue-cured cultivar) were transplanted to 1/5000a Wagner pots filled with Kureha garden nursery soil. The plants were grown in a glasshouse, and the floral axis parts were removed at the time of single-flower bloom of tobacco (top pruning).
(§2) Samples were prepared by diluting the above-mentioned formulation containing 10% of chlorthal-dimethyl with water to predetermined concentrations, and adding thereto the formulation containing 70% of decyl alcohol so as to make each sample have a predetermined concentration, and subjected to the test (Examples 1 to 6). Samples were also prepared by diluting the formulation containing 10% of chlorthal-dimethyl with water to predetermined concentrations, and adding thereto the formulation containing 70% of 2-ethyl hexanol so as to make each sample have a predetermined concentration, and subjected to the test (Examples 7 to 12). Samples were also prepared by diluting the formulation containing 10% of chlorthal-dimethyl with water to predetermined concentrations, and adding thereto the formulation containing 70% of […] so as to make each sample have a predetermined concentration, and subjected to the test (Examples 13 to 18). Furthermore, as Comparative Examples, samples were prepared by diluting samples were also prepared by diluting the formulation containing 10% of chlorthal-dimethyl with water to predetermined concentrations (Comparative Examples 1 to 4), by diluting the formulation containing 70% of decyl alcohol with water to predetermined concentrations (Comparative Examples 5 to 7), and by diluting the formulation containing 70% of […] with water to predetermined concentrations (Comparative Examples 8 to 10), and by diluting the formulation containing 70% of […] with water to predetermined concentrations (Comparative Examples 11 to 13) to be subjected to the test. In addition, butralin (tradename: Blue Ribbon) (Comparative Example 14) was subjected to the test.
(§3) With respect to each of the formulations of the inhibitors for tobacco axillary bud growth, 20 ml of the water-diluted solutions of the respective inhibitors were separately sprayed using a contact-type axillary bud inhibitor spraying instrument equipped with a spot exhaust nozzle. One tobacco plant was planted per pot, and the tests were carried out in duplicate.
Further, the presence or absence of the harmful effect of each inhibitor was evaluated in one of the following four categories depending on the degrees of growth inhibition, gangrene, change in color, deformation and the like of leaves (first to fourth leaves from the top).
Large: A severely harmful effect was observed.
Middle: A clearly harmful effect was observed.
Small: A slightly harmful effect was observed.
Absent: No harmful effect was observed.

Series [2] concerns tobacco axillary bud growth. Put plainly: Tobacco axillary bud growth inhibition test, pot plants after top pruning, contact spray. In kind it is in vivo, Nicotiana tabacum, Tsukuba 1 (flue-cured cultivar). The conditions noted are these: single active ingredient, 20 ml sprayed per plant, 28 days after spraying. As to the method: as §1, §2, §3
For the respective cases, states of inhibition of axillary bud growth 28 days after the spraying were investigated together with untreated groups sprayed with no inhibitor, and axillary bud growth inhibition rates were calculated by the following equation. Axillary bud growth inhibition rate=(fresh weight of axillary buds per plant of untreated group−fresh weight of axillary buds per plant of treated group)÷(fresh weight of axillary buds per plant of untreated group)×100 [Math. 1]
It should be noted that the values in parentheses in Table 1 represent predicted values of the effects of inhibiting axillary bud growth of mixed agents (that is, compounds mixed as active ingredients), that is, expected values of additive effects. The expected values were calculated by the following Colby's equation (Colby. S. R.; “Calculating Synergistic and Antagonistic Responses of Herbicide Combinations” Weed, Vol. 15(1), 20-22, 1967). Colby's equation: E=x+y−x·y/100 [Math. 2]
E: Axillary bud growth inhibition rate in the case of using a mixture of active compound A (concentration a) and active compound B (concentration b) (theoretical axillary bud growth inhibition rate)
x: Axillary bud growth inhibition rate in the case of using active compound A at concentration a
y: Axillary bud growth inhibition rate in the case of using active compound B at concentration b
In the case where a measured value determined in the above-mentioned test (axillary bud growth inhibition rate) was larger than the expected value, a synergetic effect was expressed on activity to suppress axillary bud growth.

`COC(=O)c1c(Cl)c(Cl)c(C(=O)OC)c(Cl)c1Cl` [Comparative Ex. 1, dimethyl tetrachloroterephthalate]: the Harmful effect result in series [1] (in vivo) is listed as “None”. Moreover, the “Axillary bud growth inhibition (%)” value in series [2] (concentration 0.002 %) was 1.1%.
As to `COC(=O)c1c(Cl)c(Cl)c(C(=O)OC)c(Cl)c1Cl` [Comparative Ex. 2, dimethyl tetrachloroterephthalate], in series [1] (in vivo), the Harmful effect result is “None”. In addition, in series [2] (concentration 0.005 %), the “Axillary bud growth inhibition (%)” value came out at 4.2%.
For `COC(=O)c1c(Cl)c(Cl)c(C(=O)OC)c(Cl)c1Cl` [Comparative Ex. 3, dimethyl tetrachloroterephthalate], the Harmful effect entry in series [1] (in vivo) is reported as “None”. For the same compound, the “Axillary bud growth inhibition (%)” value in series [2] (concentration 0.01 %) is recorded as 23.4%.
As for `COC(=O)c1c(Cl)c(Cl)c(C(=O)OC)c(Cl)c1Cl` [Comparative Ex. 4, dimethyl tetrachloroterephthalate], in series [1] (in vivo), the Harmful effect entry is “None”. The “Axillary bud growth inhibition (%)” value in series [2] (concentration 1 %) is reported as 100%.
Take `CCCCCCCCCCO` [Comparative Ex. 5, Decyl alcohol]: the Harmful effect entry in series [1] (in vivo) is given as “None”. Moreover, in series [2] (concentration 0.7 %), the “Axillary bud growth inhibition (%)” value was 41.4%.
As to `CCCCCCCCCCO` [Comparative Ex. 6, Decyl alcohol], the Harmful effect result in series [1] (in vivo) is reported as “None”. Besides, the “Axillary bud growth inhibition (%)” value in series [2] (concentration 1.4 %) was 68.6%.
For `CCCCCCCCCCO` [Comparative Ex. 7, Decyl alcohol], in series [2] (concentration 2.6 %), the “Axillary bud growth inhibition (%)” value was found to be 86.8%.
Regarding `CCCCC(CC)CO` (stereo not drawn) [Comparative Ex. 8, 2-ethyl hexanol], the Harmful effect entry in series [1] (in vivo) is “None”. The “Axillary bud growth inhibition (%)” value in series [2] (concentration 0.7 %) is 33.1%.
Regarding `CCCCC(CC)CO` (stereo not drawn) [Comparative Ex. 9, 2-ethyl hexanol], the Harmful effect result in series [1] (in vivo) is “None”. Moreover, in series [2] (concentration 1.4 %), the “Axillary bud growth inhibition (%)” value is listed as 66.6%.
On to `CCCCC(CC)CO` (stereo not drawn) [Comparative Ex. 10, 2-ethyl hexanol], for which the “Axillary bud growth inhibition (%)” value in series [2] (concentration 2.6 %) turned out to be 82.1%.
For `CC(C)=CCC/C(C)=C/CO` [Comparative Ex. 11, Geraniol], the Harmful effect entry in series [1] (single active ingredient, concentration 0.7 %, 20 ml sprayed per plant) is recorded as “None”. The “Axillary bud growth inhibition (%)” value in series [2] (concentration 0.7 %) turned out to be 52.1%.
For the compound `CC(C)=CCC/C(C)=C/CO` [Comparative Ex. 12, Geraniol], in series [1] (single active ingredient, concentration 1.4 %, 20 ml sprayed per plant), the Harmful effect entry was “None”. Also, in series [2] (concentration 1.4 %), the “Axillary bud growth inhibition (%)” value is given as 72.5%.
With `CC(C)=CCC/C(C)=C/CO` [Comparative Ex. 13, Geraniol], the Harmful effect result is reported as “Medium degree” in series [1] (single active ingredient, concentration 2.6 %, 20 ml sprayed per plant) and “small or medium degree” in series [1] (single active ingredient, concentration 2.6 %, 20 ml sprayed per plant, listed as Comparative Example 13). In addition, the “Axillary bud growth inhibition (%)” value in series [2] (concentration 2.6 %) was 87.9%.
As to `CCC(C)Nc1c([N+](=O)[O-])cc(C(C)(C)C)cc1[N+](=O)[O-]` (stereo not drawn) [Comparative Ex. 14, Butralin], in series [1] (in vivo), the Harmful effect result is listed as “Small degree”. Moreover, the “Axillary bud growth inhibition (%)” value in series [2] (concentration 0.35 %) was found to be 98.2%.
